Data as given in the kinase profiling compilation of Christmann-Franck et al. (2016).

What was measured:
Experiment in all cases: KINOMEscan competition binding
Conditions in all cases: compound 10.0 µM
[1] = target: CDC42BPG (human) (UniProt Q6DT37)
[2] = target: ERBB4 (human) (UniProt Q15303)
[3] = target: JAK3 JH1 catalytic (human) (UniProt P52333)
[4] = target: PDGFRA (human) (UniProt P16234)
[5] = target: ZAP70 (human) (UniProt P43403)
[6] = target: INSR (human) (UniProt P06213)
[7] = target: PIK3CB (human) (UniProt P42338)
[8] = target: PHKG1 (human) (UniProt Q16816)
[9] = target: BRSK2 (human) (UniProt Q8IWQ3)
[10] = target: JAK2 JH1 catalytic (human) (UniProt O60674)
[11] = target: NUAK1 (human) (UniProt O60285)
[12] = target: MELK (human) (UniProt Q14680)
[13] = target: CSK (human) (UniProt P41240)
[14] = target: JAK1 JH2 pseudokinase (human) (UniProt P23458)
[15] = target: STK3 (human) (UniProt Q13188)
[16] = target: NTRK1 (human) (UniProt P04629)
[17] = target: STK36 (human) (UniProt Q9NRP7)
[18] = target: PIK3C2B (human) (UniProt O00750)
[19] = target: MAPK6 (human) (UniProt Q16659)
[20] = target: PRKCD (human) (UniProt Q05655)
[21] = target: ACVRL1 (human) (UniProt P37023)
[22] = target: TNIK (human) (UniProt Q9UKE5)
[23] = target: NEK6 (human) (UniProt Q9HC98)
[24] = target: IKBKE (human) (UniProt Q14164)
[25] = target: IGF1R (human) (UniProt P08069)
[26] = target: MST4 (human) (UniProt Q9P289)
[27] = target: TEK (human) (UniProt Q02763)
[28] = target: TLK1 (human) (UniProt Q9UKI8)
[29] = target: PAK7 (human) (UniProt Q9P286)
[30] = target: FGR (human) (UniProt P09769)
[31] = target: PRKCQ (human) (UniProt Q04759)
[32] = target: AKT1 (human) (UniProt P31749)
[33] = target: WEE1 (human) (UniProt P30291)
[34] = target: MAPK15 (human) (UniProt Q8TD08)
[35] = target: PRKG2 (human) (UniProt Q13237)
[36] = target: MAP2K4 (human) (UniProt P45985)
[37] = target: RAF1 (human) (UniProt P04049)
[38] = target: ACVR2A (human) (UniProt P27037)
[39] = target: NEK7 (human) (UniProt Q8TDX7)
[40] = target: RIPK2 (human) (UniProt O43353)

Chain of AKT1 (human) (P31749 whole entry, looked up): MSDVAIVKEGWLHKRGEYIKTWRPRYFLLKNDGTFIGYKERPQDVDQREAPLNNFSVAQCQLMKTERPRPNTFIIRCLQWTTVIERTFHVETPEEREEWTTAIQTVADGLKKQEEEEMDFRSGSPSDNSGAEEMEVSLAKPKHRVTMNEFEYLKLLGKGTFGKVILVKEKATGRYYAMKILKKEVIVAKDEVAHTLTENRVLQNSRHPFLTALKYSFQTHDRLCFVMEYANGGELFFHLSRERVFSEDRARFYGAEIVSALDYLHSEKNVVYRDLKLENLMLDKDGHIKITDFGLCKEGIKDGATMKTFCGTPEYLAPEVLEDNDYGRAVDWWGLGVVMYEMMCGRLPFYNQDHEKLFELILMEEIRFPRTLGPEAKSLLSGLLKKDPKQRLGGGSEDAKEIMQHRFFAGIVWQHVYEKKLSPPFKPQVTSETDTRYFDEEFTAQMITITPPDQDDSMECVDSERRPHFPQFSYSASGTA
Chain of MST4 (human) (Q9P289 whole entry, looked up): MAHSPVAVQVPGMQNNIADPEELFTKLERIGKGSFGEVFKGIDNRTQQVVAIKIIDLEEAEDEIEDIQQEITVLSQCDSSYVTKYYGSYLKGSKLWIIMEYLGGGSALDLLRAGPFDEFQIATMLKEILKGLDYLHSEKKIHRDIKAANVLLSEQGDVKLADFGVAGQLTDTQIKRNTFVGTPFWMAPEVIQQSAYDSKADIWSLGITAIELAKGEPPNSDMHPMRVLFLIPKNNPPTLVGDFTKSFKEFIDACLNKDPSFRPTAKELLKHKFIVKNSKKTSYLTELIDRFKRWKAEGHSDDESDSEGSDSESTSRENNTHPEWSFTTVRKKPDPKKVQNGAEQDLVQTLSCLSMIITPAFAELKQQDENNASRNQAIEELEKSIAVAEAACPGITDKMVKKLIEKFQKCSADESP
Chain of JAK3 JH1 catalytic (human) (P52333 whole entry, looked up): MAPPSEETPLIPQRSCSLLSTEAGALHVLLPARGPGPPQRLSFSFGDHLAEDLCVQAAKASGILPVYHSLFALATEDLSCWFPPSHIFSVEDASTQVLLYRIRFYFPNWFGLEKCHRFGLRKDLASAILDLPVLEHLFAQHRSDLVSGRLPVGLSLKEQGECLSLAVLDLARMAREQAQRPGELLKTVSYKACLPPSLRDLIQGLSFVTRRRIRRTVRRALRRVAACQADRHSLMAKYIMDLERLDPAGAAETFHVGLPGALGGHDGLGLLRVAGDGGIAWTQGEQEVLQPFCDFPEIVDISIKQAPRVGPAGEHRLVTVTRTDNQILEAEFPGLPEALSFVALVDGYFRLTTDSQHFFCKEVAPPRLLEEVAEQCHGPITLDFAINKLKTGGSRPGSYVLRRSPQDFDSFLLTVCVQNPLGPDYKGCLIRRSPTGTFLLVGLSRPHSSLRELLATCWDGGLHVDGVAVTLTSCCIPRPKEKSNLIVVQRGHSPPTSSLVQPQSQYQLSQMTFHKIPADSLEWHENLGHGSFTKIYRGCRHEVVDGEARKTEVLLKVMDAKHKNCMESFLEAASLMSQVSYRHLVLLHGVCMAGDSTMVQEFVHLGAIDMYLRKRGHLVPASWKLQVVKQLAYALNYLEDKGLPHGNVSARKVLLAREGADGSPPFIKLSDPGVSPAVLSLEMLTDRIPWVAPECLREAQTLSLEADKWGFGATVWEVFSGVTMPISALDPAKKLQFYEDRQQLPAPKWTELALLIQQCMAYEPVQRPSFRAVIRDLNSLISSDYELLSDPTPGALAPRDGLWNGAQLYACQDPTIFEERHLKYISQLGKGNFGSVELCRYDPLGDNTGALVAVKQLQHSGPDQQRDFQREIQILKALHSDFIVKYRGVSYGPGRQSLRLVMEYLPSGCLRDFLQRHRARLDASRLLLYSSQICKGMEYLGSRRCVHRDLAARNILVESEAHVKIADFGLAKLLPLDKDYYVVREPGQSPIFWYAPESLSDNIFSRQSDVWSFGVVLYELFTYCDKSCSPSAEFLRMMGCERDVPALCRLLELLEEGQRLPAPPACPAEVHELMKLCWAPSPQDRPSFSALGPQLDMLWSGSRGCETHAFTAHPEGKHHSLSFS
Chain of WEE1 (human) (P30291 whole entry, looked up): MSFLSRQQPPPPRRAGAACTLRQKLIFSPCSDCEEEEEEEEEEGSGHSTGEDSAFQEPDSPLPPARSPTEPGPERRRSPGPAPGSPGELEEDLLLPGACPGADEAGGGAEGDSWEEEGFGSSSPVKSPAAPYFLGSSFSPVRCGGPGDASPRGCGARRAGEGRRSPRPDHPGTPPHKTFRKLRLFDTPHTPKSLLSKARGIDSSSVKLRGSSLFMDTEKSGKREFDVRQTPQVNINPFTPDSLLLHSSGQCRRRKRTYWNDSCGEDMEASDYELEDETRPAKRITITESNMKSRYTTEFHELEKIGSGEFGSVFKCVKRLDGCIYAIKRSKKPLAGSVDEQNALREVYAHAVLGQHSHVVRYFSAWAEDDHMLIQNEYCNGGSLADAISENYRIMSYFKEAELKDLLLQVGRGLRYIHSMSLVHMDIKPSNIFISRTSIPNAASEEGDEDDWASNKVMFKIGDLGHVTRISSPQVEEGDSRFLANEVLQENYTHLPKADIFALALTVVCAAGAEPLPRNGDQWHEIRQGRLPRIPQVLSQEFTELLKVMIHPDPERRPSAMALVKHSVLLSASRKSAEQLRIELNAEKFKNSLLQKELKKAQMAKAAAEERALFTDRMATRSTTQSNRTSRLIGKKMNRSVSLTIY
Chain of NEK6 (human) (Q9HC98 whole entry, looked up): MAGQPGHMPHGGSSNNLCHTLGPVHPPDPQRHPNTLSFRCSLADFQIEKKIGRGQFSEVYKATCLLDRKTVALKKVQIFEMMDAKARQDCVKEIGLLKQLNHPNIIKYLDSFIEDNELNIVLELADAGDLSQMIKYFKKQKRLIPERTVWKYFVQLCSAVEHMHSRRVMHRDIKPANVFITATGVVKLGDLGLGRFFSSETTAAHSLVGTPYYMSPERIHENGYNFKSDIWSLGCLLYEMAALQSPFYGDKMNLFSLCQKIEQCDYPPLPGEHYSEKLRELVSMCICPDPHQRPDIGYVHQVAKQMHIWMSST
Chain of CSK (human) (P41240 whole entry, looked up): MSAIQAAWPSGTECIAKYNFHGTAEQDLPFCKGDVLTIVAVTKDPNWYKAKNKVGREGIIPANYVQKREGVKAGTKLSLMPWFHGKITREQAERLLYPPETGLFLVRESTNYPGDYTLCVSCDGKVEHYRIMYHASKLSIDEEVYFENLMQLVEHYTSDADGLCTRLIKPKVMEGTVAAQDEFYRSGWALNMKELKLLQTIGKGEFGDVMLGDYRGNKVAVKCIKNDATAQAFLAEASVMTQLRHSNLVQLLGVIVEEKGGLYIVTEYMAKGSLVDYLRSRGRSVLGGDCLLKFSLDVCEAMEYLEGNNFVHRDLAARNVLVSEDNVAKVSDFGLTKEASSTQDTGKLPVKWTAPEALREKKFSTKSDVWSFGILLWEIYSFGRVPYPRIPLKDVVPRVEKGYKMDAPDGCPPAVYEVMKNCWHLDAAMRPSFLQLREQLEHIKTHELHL
Chain of NEK7 (human) (Q8TDX7 whole entry, looked up): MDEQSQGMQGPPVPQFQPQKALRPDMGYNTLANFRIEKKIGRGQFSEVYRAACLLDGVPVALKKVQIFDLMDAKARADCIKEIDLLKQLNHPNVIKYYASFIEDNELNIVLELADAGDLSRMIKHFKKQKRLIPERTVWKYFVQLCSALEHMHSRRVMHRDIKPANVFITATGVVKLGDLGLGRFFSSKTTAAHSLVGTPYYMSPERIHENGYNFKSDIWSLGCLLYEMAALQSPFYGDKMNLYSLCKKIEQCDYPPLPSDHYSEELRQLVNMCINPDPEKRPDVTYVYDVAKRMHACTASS
Chain of PRKCQ (human) (Q04759 whole entry, looked up): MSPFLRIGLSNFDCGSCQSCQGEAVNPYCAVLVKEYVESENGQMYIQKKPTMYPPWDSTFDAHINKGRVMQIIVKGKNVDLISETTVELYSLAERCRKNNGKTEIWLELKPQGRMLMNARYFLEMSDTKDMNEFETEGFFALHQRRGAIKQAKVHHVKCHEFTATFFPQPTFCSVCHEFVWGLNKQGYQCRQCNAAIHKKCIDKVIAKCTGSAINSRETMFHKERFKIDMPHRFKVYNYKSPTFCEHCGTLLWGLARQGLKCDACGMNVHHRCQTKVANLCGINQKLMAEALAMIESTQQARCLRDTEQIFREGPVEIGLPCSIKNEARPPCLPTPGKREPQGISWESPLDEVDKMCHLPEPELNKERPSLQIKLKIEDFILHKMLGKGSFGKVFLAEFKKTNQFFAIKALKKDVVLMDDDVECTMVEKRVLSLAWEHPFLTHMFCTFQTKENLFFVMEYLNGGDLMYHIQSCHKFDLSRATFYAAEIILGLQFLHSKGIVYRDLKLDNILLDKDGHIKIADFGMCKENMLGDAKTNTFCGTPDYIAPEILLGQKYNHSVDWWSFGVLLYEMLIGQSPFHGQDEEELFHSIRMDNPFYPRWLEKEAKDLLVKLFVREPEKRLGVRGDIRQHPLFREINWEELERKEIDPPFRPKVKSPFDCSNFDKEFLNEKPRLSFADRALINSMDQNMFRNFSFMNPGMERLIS
Chain of MAPK15 (human) (Q8TD08 whole entry, looked up): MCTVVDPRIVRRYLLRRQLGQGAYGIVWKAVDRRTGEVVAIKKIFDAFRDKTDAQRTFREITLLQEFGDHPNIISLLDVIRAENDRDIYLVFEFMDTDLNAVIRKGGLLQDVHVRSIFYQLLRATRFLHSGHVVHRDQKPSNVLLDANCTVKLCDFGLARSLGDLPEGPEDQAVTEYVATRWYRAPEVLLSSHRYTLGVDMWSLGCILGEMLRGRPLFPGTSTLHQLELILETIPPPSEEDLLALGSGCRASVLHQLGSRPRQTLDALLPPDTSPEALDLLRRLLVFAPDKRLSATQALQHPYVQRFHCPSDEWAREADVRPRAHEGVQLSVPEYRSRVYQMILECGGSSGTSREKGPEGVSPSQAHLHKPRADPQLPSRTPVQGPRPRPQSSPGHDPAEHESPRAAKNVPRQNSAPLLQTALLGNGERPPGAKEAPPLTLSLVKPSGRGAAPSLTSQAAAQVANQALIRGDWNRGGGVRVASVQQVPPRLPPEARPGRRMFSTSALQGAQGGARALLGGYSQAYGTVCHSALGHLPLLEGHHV

Structure (SMILES) | kinase still bound, per cent of control [1] [%] | kinase still bound, per cent of control [2] [%] | kinase still bound, per cent of control [3] [%] | kinase still bound, per cent of control [4] [%] | kinase still bound, per cent of control [5] [%] | kinase still bound, per cent of control [6] [%] | kinase still bound, per cent of control [7] [%] | kinase still bound, per cent of control [8] [%] | kinase still bound, per cent of control [9] [%] | kinase still bound, per cent of control [10] [%] | kinase still bound, per cent of control [11] [%] | kinase still bound, per cent of control [12] [%] | kinase still bound, per cent of control [13] [%] | kinase still bound, per cent of control [14] [%] | kinase still bound, per cent of control [15] [%] | kinase still bound, per cent of control [16] [%] | kinase still bound, per cent of control [17] [%] | kinase still bound, per cent of control [18] [%] | kinase still bound, per cent of control [19] [%] | kinase still bound, per cent of control [20] [%] | other results
O=C(NOC[C@H](O)CO)c1ccc(F)c(F)c1Nc1ccc(I)cc1F | 85 | 100 | 100 | 96 | 89 | 92 | 100 | 100 | 100 | 100 | 81 | 80 | 100 | 100 | 90 | 100 | 74 | 100 | 83 | 100 | kinase still bound, per cent of control [21]: 100%; kinase still bound, per cent of control [22]: 100%; kinase still bound, per cent of control [23]: 100%; kinase still bound, per cent of control [24]: 100%; kinase still bound, per cent of control [25]: 87%; kinase still bound, per cent of control [26]: 77%; kinase still bound, per cent of control [27]: 100%; kinase still bound, per cent of control [28]: 89%; kinase still bound, per cent of control [29]: 100%; kinase still bound, per cent of control [30]: 95%; kinase still bound, per cent of control [31]: 100%; kinase still bound, per cent of control [32]: 81%; kinase still bound, per cent of control [33]: 67%; kinase still bound, per cent of control [34]: 100%; kinase still bound, per cent of control [35]: 86%; kinase still bound, per cent of control [36]: 83%; kinase still bound, per cent of control [37]: 99%; kinase still bound, per cent of control [38]: 80%; kinase still bound, per cent of control [39]: 95%; kinase still bound, per cent of control [40]: 66%
COc1cc(C(=O)NC2CCN(C)CC2)ccc1Nc1ncc2c(n1)N(C1CCCC1)CCC(=O)N2C(C)C | 100 | 100 | 100 | 100 | 100 | 100 | 100 | 100 | 0 | 100 | 100 | 100 | 100 | 100 | 100 | 100 | 100 | 100 | 100 | 0 | kinase still bound, per cent of control [21]: 100%; kinase still bound, per cent of control [22]: 100%; kinase still bound, per cent of control [23]: 100%; kinase still bound, per cent of control [24]: 100%; kinase still bound, per cent of control [25]: 100%; kinase still bound, per cent of control [26]: 100%; kinase still bound, per cent of control [27]: 100%; kinase still bound, per cent of control [28]: 100%; kinase still bound, per cent of control [29]: 100%; kinase still bound, per cent of control [30]: 100%; kinase still bound, per cent of control [31]: 100%; kinase still bound, per cent of control [32]: 100%; kinase still bound, per cent of control [33]: 100%; kinase still bound, per cent of control [34]: 100%; kinase still bound, per cent of control [35]: 100%; kinase still bound, per cent of control [36]: 100%; kinase still bound, per cent of control [37]: 100%; kinase still bound, per cent of control [38]: 100%; kinase still bound, per cent of control [39]: 100%; kinase still bound, per cent of control [40]: 100%
